Measurements reported in patent publication US8591880B2, “Gut flora and weight management” (priority 2007, dated 2013).
Like-named read-outs stand apart in the source and are kept apart here.

Experiments:
Type in all cases: cell-based
Bifidobacteria = assay: In vitro antibiotic susceptibility strip test, Bifidobacteria; details: colonies from feces of ob/ob mice; for Susceptibility class, Bifidobacteria: MRS/cystein agar, strip test; for Count in brackets, Bifidobacteria: fraction given, not defined
Lactobacillus = assay: In vitro antibiotic susceptibility strip test, Lactobacillus; details: colonies from feces of ob/ob mice; for Susceptibility class, Lactobacillus: MRS/cystein agar, strip test; for Count in brackets, Lactobacillus: fraction given, not defined
Enterobacteria = assay: In vitro antibiotic susceptibility strip test, Enterobacteria; details: for Susceptibility class, Enterobacteria / Count in brackets, Enterobacteria: colonies from feces of ob/ob mice; for Susceptibility class, Enterobacteria: Mueller Hinton agar, strip test; for Count in brackets, Enterobacteria: fraction given, not defined; for Growth / susceptibility of fecal enterobacteria, in words: summary of Table 1
Bacteroides = assay: In vitro antibiotic susceptibility strip test, Bacteroides; details: for Count in brackets, Bacteroides: fraction given, not defined
[1] = colonies from feces of ob/ob mice
[2] = colonies from feces of ob/ob mice, Brucella agar, strip test

Structure (SMILES) | Susceptibility class, Bifidobacteria (Bifidobacteria) | Count in brackets, Bifidobacteria (Bifidobacteria) | Susceptibility class, Lactobacillus (Lactobacillus) | Count in brackets, Lactobacillus (Lactobacillus) | Susceptibility class, Enterobacteria (Enterobacteria) | Count in brackets, Enterobacteria (Enterobacteria) | Growth / susceptibility of fecal enterobacteria, in words (Enterobacteria) | Susceptibility class, Bacteroides (Bacteroides) | Count in brackets, Bacteroides (Bacteroides; [1]) | Susceptibility class, Bacteroides (Bacteroides; [2])
CC1(C)S[C@@H]2[C@H](NC(=O)[C@H](N)c3ccc(O)cc3)C(=O)N2[C@H]1C(=O)O [Amoxicillin, amoxicillin] | S | 3/3 | S | 33/33 | R | 0/19 | resistant | S/R (14/16) | S/R (14/16) | 
CC1(C)S[C@@H]2[C@H](NC(=O)[C@H](N)c3ccccc3)C(=O)N2[C@H]1C(=O)O [Ampicillin, ampicillin] | S | 3/3 | S | 33/33 | S/R | 13/19 | only partially sensitive |  | 16/16 | S
CCn1cc(C(=O)O)c(=O)c2cc(F)c(N3CCNCC3)cc21 [Norfloxacin, norfloxacin] | R | 0/3 | S/R | 25/33 | S | 19/19 | capable of suppressing the growth |  | 0/16 | R
